Measured values: patent US9234006B2, “Compounds” (Novacta Biosystems Limited, priority 2011, dated 2016)
Counter-ions that a name gives are not always drawn. Where a SMILES comes first, the peptide text is derived from it. Bridges are numbered along the chain shown (N, C = ends). [ ]: non-standard residue; d: D form. The star is where a group is joined. ξ: configuration not given here. Thr(3ξ) = CC(O)[C@H](N)C(=O)O; Dab = NCC[C@H](N)C(=O)O; X1 = CCCCCCC(O)C(=O)*; GABA = NCCCC(=O)O

Tests used:
E. coli ATCC25922 = experiment: MIC susceptibility testing, broth microdilution in CaMHB; assay type: cell-based, Escherichia coli
Method in brief: (§1)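 Inoculum prep: 3 to 4 colonies into CaMHB, 18-20 h at 37° C/250 rpm; 100-fold subculture to OD600 0.2-0.3; further 100-fold dilution to inoculate. Duplicate determinations.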

E. coli ATCC700928 = experiment: as above; assay type: cell-based, Escherichia coli
Method in brief: as §1

E. coli NCTC12900 = experiment: as above; assay type: cell-based, Escherichia coli
Method in brief: as §1

E. coli NCTC9001 = experiment: as above; assay type: cell-based, Escherichia coli
Method in brief: as §1

P. aeruginosa ATCC 9721 = experiment: as above; assay type: cell-based, Pseudomonas aeruginosa
Method in brief: as §1

P. aeruginosa ATCC10145 = experiment: as above; assay type: cell-based, Pseudomonas aeruginosa
Method in brief: as §1

P. aeruginosa ATCC27853 = experiment: as above; assay type: cell-based, Pseudomonas aeruginosa
Method in brief: as §1

[1] = test system: P. aeruginosa ATCCCRM-9027; experiment: as above; assay type: cell-based, Pseudomonas aeruginosa
Method in brief: as §1

K. pneumoniae ATCC 4352 = experiment: as above; assay type: cell-based, Klebsiella pneumoniae
Method in brief: as §1

[2] = test system: K. pneumoniae ATCCBAA-1706; experiment: as above; assay type: cell-based, Klebsiella pneumoniae; details: Table 4
Method in brief: as §1

K. pneumoniae NCTC7427 = experiment: as above; assay type: cell-based, Klebsiella pneumoniae
Method in brief: as §1

K. pneumoniae NCTC8172 = experiment: as above; assay type: cell-based, Klebsiella pneumoniae
Method in brief: as §1

A. baumannii ATCC19606 = experiment: as above; assay type: cell-based, Acinetobacter baumannii
Method in brief: as §1

A. baumannii NCTC7844 = experiment: as above; assay type: cell-based, Acinetobacter baumannii
Method in brief: as §1

[3] = test system: P. aeruginosa clinical isolates and resistant strains; assay type: cell-based; details: clinical isolates and resistant strains
Protocol: The in vitro antibacterial activities of the compounds of examples 2 and 6 were evaluated against a panel of […] Gram-negative bacterial isolates alongside Colistin. The panel consisted of 100 clinical isolates of each of A. baumannii, E. coli, K. pneumoniae and P. aeruginosa. The panel represented the current epidemiology in Europe and the USA and included a number of relevant strains with defined resistant phenotypes to current clinically-used antibacterial agents. These resistant strains included 20 A. baumannii, 22 E. coli, 25 K. pneumoniae and 20 P. aeruginosa strains.
All compounds were tested up to a maximum concentration of 64 μg/mL with the exception of colistin, which was evaluated up to a maximum concentration of 16 μg/mL.

[4] = Pharmacokinetic and urinary clearance studies in rats; assay type: in vivo
Protocol: Drug solutions were prepared at 4 mg/mL in Normal Saline and the pH adjusted to 6-7 by adding the appropriate volume of 0.1 M H2SO4 or 4.2% NaHCO3. The solutions were filter-sterilized and stored at −80° C. before use. On the day of the experiment, drug solutions were diluted to 1 mg/mL with sterile Normal Saline.
Groups of 3 male Sprague Dawley rats were acclimatised for a minimum of 4 days before the study. Rats were anesthetized using isofluorane and a cannula was inserted into the jugular vein. One day after surgery, rats were dosed with an intravenous bolus injection of the solution at 1 mg/kg through the cannula, followed by washing with Normal Saline. Blood was collected manually through the cannula prior to administration of the compound and at 0.08, 0.25, 0.5, 1, 3, 6, 8 and 24 h thereafter. Plasma was harvested by centrifugation immediately after blood collection. Twenty-four hour urine samples were collected prior to and after administration of the compound in 0-4 h, 4-6 h, and 6-24 h intervals. Plasma and urine samples were frozen at −20° C.
Determination of the plasma and urine concentrations of the drug was performed by Liquid Chromatography Mass Spectrometry (LC-MS/MS). Before analysis the plasma and urine samples were prepared as follows. Plasma samples were thawed on the day of analysis and mixed with 3 volumes of acetonitrile containing 0.1% (v/v) formic acid and 100 ng/mL of internal standard. After centrifugation, supernatants were transferred to a 96-well plate and diluted 1:1 with water ready for analysis by LC-MS/MS. Urine samples were purified by solid-phase extraction (SPE) on Oasis HLB cartridges (Waters, UK) eluting with 100% methanol. An aliquot was transferred to a 96 well plate and diluted 1:1 with water before addition of internal standard solution, ready for analysis by LC-MS/MS.
The pharmacokinetic parameters were determined by non-compartmental analysis using WinNonLin v5.3. The urinary recovery was recorded as the percentage of intact drug recovered in the urine for the first 24 h after injection.

[5] = Table 4A, different batches of cation-adjusted Muller-Hinton broth
[6] = P. aeruginosa ATCC 9721, Table 4
[7] = P. aeruginosa ATCC9721, Table 4A, different batches of cation-adjusted Muller-Hinton broth
[8] = P. aeruginosa AATCCRM 9027, Table 4A, different batches of cation-adjusted Muller-Hinton broth
[9] = P. aeruginosa ATCCCRM-9027, Table 4
[10] = K. pneumoniae ATCC 4352, Table 4
[11] = K. pneumoniae ATCC4352, Table 4A, different batches of cation-adjusted Muller-Hinton broth
[12] = male, Sprague Dawley, rat, in vivo, iv, 1 mg/kg
[13] = male Sprague Dawley rats, intravenous bolus 1 mg/kg
[14] = male Sprague Dawley rats, intravenous bolus 1 mg/kg, plasma

Molecule | MIC (E. coli ATCC25922; Table 4) | MIC (E. coli ATCC25922; [5]) | MIC (E. coli ATCC700928; Table 4) | MIC (E. coli ATCC700928; [5]) | MIC (E. coli NCTC12900; [5]) | MIC (E. coli NCTC9001; Table 4) | MIC (E. coli NCTC9001; [5]) | MIC (P. aeruginosa ATCC 9721; [6]) | MIC (P. aeruginosa ATCC 9721; [7]) | MIC (P. aeruginosa ATCC10145; Table 4) | MIC (P. aeruginosa ATCC10145; [5]) | MIC (P. aeruginosa ATCC27853; Table 4) | MIC (P. aeruginosa ATCC27853; [5]) | MIC [1, 8] | MIC [1, 9] | MIC (K. pneumoniae ATCC 4352; [10]) | MIC (K. pneumoniae ATCC 4352; [11]) | MIC [2] | MIC (K. pneumoniae NCTC7427; Table 4) | MIC (K. pneumoniae NCTC7427; [5]) | also measured
CCCCCCC(O)C(=O)N[C@H](C(=O)N[C@@H](CCN)C(=O)N[C@H]1CCNC(=O)[C@H](C(C)O)NC(=O)[C@H](CCN)NC(=O)[C@H](CCN)NC(=O)[C@H](CC(C)C)NC(=O)[C@@H](Cc2ccccc2)NC(=O)[C@H](CCN)NC1=O)C(C)O (stereo partly drawn) [Example 2, [2(R,S)-2-Hydroxyoctanoyl] Polymyxin B Nonapeptide, Sulphate Salt] (X1-[Thr(3ξ)][Dab][Dab][Dab][dF]L[Dab][Dab][Thr(3ξ)]; lactam 3-C) | 1 micrograms/mL | 2 micrograms/mL | 0.25 micrograms/mL | 0.5 micrograms/mL | 8 micrograms/mL | 0.25 micrograms/mL | 2 micrograms/mL | 2 micrograms/mL | 0.5 micrograms/mL | 1 micrograms/mL | 1 micrograms/mL | 0.5 micrograms/mL | 0.5 micrograms/mL | 0.5 micrograms/mL | 0.25 micrograms/mL | 0.5 micrograms/mL | 1 micrograms/mL | 0.5 micrograms/mL | 4 micrograms/mL | 0.5 micrograms/mL | MIC (E. coli NCTC12900; Table 4): 0.25 micrograms/mL; MIC (K. pneumoniae NCTC8172; Table 4): 4 micrograms/mL; MIC (K. pneumoniae NCTC8172; [5]): 4 micrograms/mL; MIC (A. baumannii ATCC19606; Table 4): 2 micrograms/mL; MIC (A. baumannii ATCC19606; [5]): 2 micrograms/mL; MIC (A. baumannii NCTC7844; Table 4): 2 micrograms/mL; MIC (A. baumannii NCTC7844; [5]): 4 micrograms/mL; MIC50 Clinical isolates [3]: 2 µg/mL; MIC50 Resistant strains [3]: 2 µg/mL; MIC90 Clinical isolates [3]: 4 µg/mL; MIC90 Resistant strains [3]: 4 µg/mL; MIC Range Clinical isolates [3]: 1 to 8 µg/mL; MIC Range Resistant strains [3]: 1 to 4 µg/mL; AUC(0-inf) [4, 12]: 4010 ng·h/mL; Cmax [4, 12]: 2400 ng/mL; Vd [4, 12]: 0.488 L/kg; clearance [4, 12]: 4.18 mL/min/kg; half-life [4, 12]: 80.4 min
CC(C)C[C@@H]1NC(=O)[C@@H](Cc2ccccc2)NC(=O)[C@H](CCN)NC(=O)[C@@H](NC(=O)[C@H](CCN)NC(=O)[C@@H](NC(=O)CCCN)[C@@H](C)O)CCNC(=O)[C@H]([C@@H](C)O)NC(=O)[C@H](CCN)NC(=O)[C@H](CCN)NC1=O [Example 6, 4-Aminobutanoyl Polymyxin B Nonapeptide, Sulphate Salt] (H-[GABA]T[Dab][Dab][Dab][dF]L[Dab][Dab]T; lactam 4-C) | 0.5 micrograms/mL | 2 micrograms/mL | 0.125 micrograms/mL | 2 micrograms/mL | 8 micrograms/mL | 1 micrograms/mL | 8 micrograms/mL | 0.125 micrograms/mL | 0.125 micrograms/mL | 0.25 micrograms/mL | 0.5 micrograms/mL | 0.25 micrograms/mL | 0.25 micrograms/mL | 0.25 micrograms/mL | 0.125 micrograms/mL | 0.125 micrograms/mL | 1 micrograms/mL | 0.25 micrograms/mL | 0.125 micrograms/mL | 0.125 micrograms/mL | MIC (E. coli NCTC12900; Table 4): 2 micrograms/mL; MIC (K. pneumoniae NCTC8172; [5]): 16 micrograms/mL; MIC (A. baumannii ATCC19606; Table 4): 0.25 micrograms/mL; MIC (A. baumannii ATCC19606; [5]): 4 micrograms/mL; MIC (A. baumannii NCTC7844; Table 4): 2 micrograms/mL; MIC (A. baumannii NCTC7844; [5]): 2 micrograms/mL; MIC50 Clinical isolates [3]: 0.25 µg/mL; MIC50 Resistant strains [3]: 0.5 µg/mL; MIC90 Clinical isolates [3]: 16 µg/mL; MIC90 Resistant strains [3]: 8 µg/mL; MIC Range Clinical isolates [3]: 0.06 to 64 µg/mL; MIC Range Resistant strains [3]: 0.12 to 16 µg/mL; AUC(0-inf) [4, 12]: 2620 ng·h/mL; Cmax [4, 12]: 3580 ng/mL; Vd [4, 12]: 0.289 L/kg; clearance [4, 12]: 6.43 mL/min/kg; half-life [4, 12]: 33.6 min
Polymyxin B [reference compound] | 0.5 micrograms/mL | 1 micrograms/mL | 0.25 micrograms/mL | 0.25 micrograms/mL | 0.25 micrograms/mL | 0.25 micrograms/mL | 0.25 micrograms/mL | 0.5 micrograms/mL | 0.125 micrograms/mL | 0.5 micrograms/mL | 1 micrograms/mL | 0.5 micrograms/mL | 0.5 micrograms/mL | 0.25 micrograms/mL | 0.25 micrograms/mL | 0.5 micrograms/mL | 0.25 micrograms/mL | 0.25 micrograms/mL | 0.25 micrograms/mL | 0.25 micrograms/mL | MIC (K. pneumoniae NCTC8172; Table 4): 0.5 micrograms/mL; MIC (K. pneumoniae NCTC8172; [5]): 1 micrograms/mL; MIC (A. baumannii ATCC19606; Table 4): 0.5 micrograms/mL; MIC (A. baumannii ATCC19606; [5]): 0.125 micrograms/mL; MIC (A. baumannii NCTC7844; Table 4): 0.25 micrograms/mL; MIC (A. baumannii NCTC7844; [5]): 0.25 micrograms/mL; CL (clearance) [4, 13]: 429 mL/h/kg; Vd [4, 13]: 1.12 L/kg; AUC(0-inf) [4, 14]: 2372 ng·h/mL; Cmax [4, 14]: 1455 ng/mL; t1/2 [4, 14]: 1.94 h; Urinary recovery ([4]; male Sprague Dawley rats, intravenous bolus 1 mg/kg, intact drug in urine in first 24 h): 0.3 % dose
